Data on two molecules can be found in patent publication US8663928B2, “Method for the detection of post-translational modifications” (CIS BIO International, priority 2006, dated 2014).

One test has as its target T1, Cam kinase II (Homo sapiens, UniProt Q13557).
T1 construct: expressed in transfected cells; host or cells: HEK293
Kind of test: TR-FRET measurement of the phosphorylation of a generic protein substrate by Cam kinase II in co-transfected HEK293 cells. In kind it is cell-based. The conditions noted are these: FIG. 2; ionomycin 1 μM, 5 min; HEK293 co-transfected with substrate plasmid and CamKII delta. The protocol: 8000 cells HEK293 are either transfected with increasing quantities of plasmid coding for the substrate alone (Identical to Example 1), or co-transfected with the same quantities of plasmid coding for the substrate and 25 ng of CamKII 6-pcDNA 3.1 (plasmid coding for Cam kinase II). The transfection is carried out as described in Example 1.
The cells are then cultured for 48 hours at 37° C. in DMEM medium, comprising 10% fcetal calf serum and 1% antibiotic and antifungal, then for 16 hours in the same medium without serum.
The cells are stimulated for 5 min in the presence of ionomycin 1 μM (Sigma), and lysed as described above.
The phosphorylation of the protein substrate is detected as described in Example 1.
Background: TR-FRET usually uses a lanthanide donor and a delayed reading to cut background.

Another test addresses T2, Akt1 (Homo sapiens, UniProt P31749).
T2 construct: expressed in transfected cells; host or cells: HEK293
The test can be described thus: TR-FRET measurement of the phosphorylation of a generic protein substrate by Akt1 in co-transfected HEK293 cells, with total protein substrate. The class given is cell-based. The protocol: 8000 HEK293 cells (ATCC) are either transfected with increasing quantities of plasmid coding for the substrate alone, or co-transfected with the same quantities of plasmid coding for the substrate and 25 ng of Akt1-pcDNA 3.1 (Invitrogen Corp. Cat No. V790-20) The co-transfection is carried out in the presence of Lipofectamine 2000 (Invitrogen corp. Cat No. 11668-019) and OPTI-MEM medium (Gibco Cat No. 31985).
The cells are then cultured for 48 hours at 37° C. in 25 μl of DMEM medium (Gibco Cat No. 11965-092), to which 10% FCS (Hyclone Cat No. SV30014-03) and 1% antibiotic and antifungal (Gibco Cat No. 15240-062) are added in 384-well plates (Proxiplate 384, Perkin-Elmer Cat No. 6006280).
The cells are lysed in 50 mM Hepes buffer, pH7, containing 0.1% BSA, 20 mM EDTA, 0.8 M potassium fluoride and 2% TRITON X-100® (octylphenol ethyelene oxide condensate)). This same buffer contains 1.8 ng of phosphospecific antibodies (STK antibody, Upstate Cat No. 35-002) conjugated with the donor (europium cryptate) and 40 ng of anti-FLAG conjugated with the acceptor (cross-linked allophycocyanin, XL 665, CIS bio international Cat No. 61 FG2XLA).
The plate is incubated for 1 hour at ambient temperature before time-resolved reading.
The FRET signals are measured on an Acquest 384 fluorimeter (Molecular Device) in TR-FRET mode at 620 nm (emission wavelength of rare earth cryptate) and 665 nm (emission wavelength of allophycocyanin) after excitation by a flash lamp with a bandwidth comprised between 330 and 380 nm. The ratio between the fluorescence emitted at 665 nm (fluorescence of the acceptor) and the fluorescence emitted at 620 nm (fluorescence of the donor) (Ratio 665/620) represents the FRET occurring between the donor (europium cryptate) and the acceptor (Allophycocyanin). […]
The cells are co-transfected and cultured as described in Example 1. […] The cells are then lysed and the phosphorylated protein substrate detected as described in Example 1.
In parallel, in a second well, cells are treated in identical manner. After lysis, the total quantity of protein substrate is measured using an anti-c-myc antibody coupled with europium cryptate (2.9 ng/well) (CIS bio international Cat No. 61MYCKLA) and an anti-FLAG antibody coupled with allophycocyanin (40 ng/well).
The cells are co-transfected with a plasmid coding for the protein substrate labelled by the c-myc and flag tags and with a plasmid coding for Akt1, as described in Example 1. […] In this case the lysate is first placed in the presence of a phosphospecific antibody, coupled with tris-bipyridine europium cryptate (CIS bio international, formula below), and an anti-FLAG antibody coupled with allophycocyanin (in the same quantities as those described in Example 1). […]

T2 sequence (P31749 whole entry, species assumed): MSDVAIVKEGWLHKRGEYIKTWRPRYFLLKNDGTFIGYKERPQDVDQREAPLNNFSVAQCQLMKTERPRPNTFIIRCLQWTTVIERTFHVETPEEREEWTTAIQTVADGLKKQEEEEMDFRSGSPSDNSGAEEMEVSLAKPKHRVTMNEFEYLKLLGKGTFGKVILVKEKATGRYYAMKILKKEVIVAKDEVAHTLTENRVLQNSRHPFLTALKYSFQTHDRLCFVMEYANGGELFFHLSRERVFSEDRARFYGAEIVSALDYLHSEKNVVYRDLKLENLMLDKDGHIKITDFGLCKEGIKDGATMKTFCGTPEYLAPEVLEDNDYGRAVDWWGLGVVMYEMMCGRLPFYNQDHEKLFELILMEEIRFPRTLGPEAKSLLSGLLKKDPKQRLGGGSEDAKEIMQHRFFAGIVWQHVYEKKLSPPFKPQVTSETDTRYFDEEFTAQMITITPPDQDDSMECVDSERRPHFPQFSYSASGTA
T1 sequence (Q13557 whole entry): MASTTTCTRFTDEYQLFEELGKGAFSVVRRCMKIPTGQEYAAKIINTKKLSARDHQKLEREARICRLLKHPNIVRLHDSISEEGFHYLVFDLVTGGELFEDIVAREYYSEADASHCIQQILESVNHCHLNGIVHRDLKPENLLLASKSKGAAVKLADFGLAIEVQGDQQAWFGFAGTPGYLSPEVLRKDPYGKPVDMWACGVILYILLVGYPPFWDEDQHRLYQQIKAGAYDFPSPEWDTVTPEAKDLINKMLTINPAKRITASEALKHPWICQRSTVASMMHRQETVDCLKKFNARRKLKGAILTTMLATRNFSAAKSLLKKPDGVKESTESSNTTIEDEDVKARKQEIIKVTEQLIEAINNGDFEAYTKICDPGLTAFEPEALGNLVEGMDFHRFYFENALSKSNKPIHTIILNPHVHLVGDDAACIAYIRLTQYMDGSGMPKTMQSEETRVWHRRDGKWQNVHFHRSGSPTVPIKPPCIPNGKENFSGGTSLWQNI

For `C[C@H](CCC(=O)O)C[C@H](C)C[C@H](C)C(=O)/C=C(\O)[C@H](C)C[C@H](C)C/C=C/[C@@H](C)[C@@H](O)[C@@H](C)[C@@H](O)C[C@@H]1CC[C@@](C)([C@H]2CC[C@@](C)([C@@H](C)O)O2)O1` [ionomycin], the “signal of phosphorylated protein substrate after stimulation” value on Cam kinase II is listed as “much greater than in its absence”.

As to `CN[C@@H]1C[C@H]2O[C@@](C)([C@@H]1OC)n1c3ccccc3c3c4c(c5c6ccccc6n2c5c31)C(=O)NC4` [staurosporine], the “signal corresponding to the phosphorylated protein substrate” value on Akt1 (FIG. 3, HEK293 co-transfected with substrate plasmid and Akt1, 1 hour incubation with increasing concentrations, separate wells) is “reduces with increasing concentrations”. Besides, the “signal corresponding to the total protein substrate” value on Akt1 (FIG. 3, anti-c-myc cryptate/anti-FLAG allophycocyanin, second well, increasing concentrations) is reported as “remains constant whatever the dose of inhibitor”. Also, the “signal corresponding to the phosphorylated protein substrate (not standardized)” value at Akt1 (FIG. 4, 0.2 nM, 20 nM, 2 μM, separate wells or single well with FRET suppressing agent) is on record as “sensitive to staurosporine only in the case where it is added to the measurement medium at high concentrations (2 μM)”. Besides, the “ratio of phosphorylated protein substrate: total protein substrate” value on Akt1 (FIG. 6, signal standardized by total protein substrate signal, 0.2 nM, 20 nM, 2 μM) is given as “inhibition of the phosphorylation of the protein substrate”.
